Test results reported in ChEMBL document CHEMBL4507258 (2021).

Assays:
[1] = target: Tyrosine-protein kinase Fes/Fps (Homo sapiens) (UniProt P07332); details: Compound concentration 1000.0 nM
[2] = target: Myosin-IIIa (Homo sapiens) (UniProt Q8NEV4); details: Compound concentration 1000.0 nM
[3] = target: Phosphatidylinositol 4,5-bisphosphate 3-kinase catalytic subunit alpha isoform (Homo sapiens) (UniProt P42336); details: Compound concentration 1000.0 nM
[4] = target: Megakaryocyte-associated tyrosine-protein kinase (Homo sapiens) (UniProt P42679); details: Compound concentration 1000.0 nM
[5] = target: Protein kinase C iota type (Homo sapiens) (UniProt P41743); details: Compound concentration 1000.0 nM
[6] = target: TGF-beta receptor type-1 (Homo sapiens) (UniProt P36897); details: Compound concentration 1000.0 nM
[7] = target: Ephrin type-B receptor 1 (Homo sapiens) (UniProt P54762); details: Compound concentration 1000.0 nM
[8] = target: Wee1-like protein kinase (Homo sapiens) (UniProt P30291); details: Compound concentration 1000.0 nM
[9] = target: Serine/threonine-protein kinase 24 (Homo sapiens) (UniProt Q9Y6E0); details: Compound concentration 1000.0 nM
[10] = target: BDNF/NT-3 growth factors receptor (Homo sapiens) (UniProt Q16620); details: Compound concentration 1000.0 nM
[11] = target: Serine/threonine-protein kinase 32C (Homo sapiens) (UniProt Q86UX6); details: Compound concentration 1000.0 nM
[12] = target: Calcium/calmodulin-dependent protein kinase type II subunit delta (Homo sapiens) (UniProt Q13557); details: Compound concentration 1000.0 nM
[13] = target: Serine/threonine-protein kinase Nek9 (Homo sapiens) (UniProt Q8TD19); details: Compound concentration 1000.0 nM
[14] = target: Serine/threonine-protein kinase pim-1 (Homo sapiens) (UniProt P11309); details: Compound concentration 1000.0 nM
Serine/threonine-protein kinase pim-1 (Homo sapiens), sequence (P11309 whole entry, looked up): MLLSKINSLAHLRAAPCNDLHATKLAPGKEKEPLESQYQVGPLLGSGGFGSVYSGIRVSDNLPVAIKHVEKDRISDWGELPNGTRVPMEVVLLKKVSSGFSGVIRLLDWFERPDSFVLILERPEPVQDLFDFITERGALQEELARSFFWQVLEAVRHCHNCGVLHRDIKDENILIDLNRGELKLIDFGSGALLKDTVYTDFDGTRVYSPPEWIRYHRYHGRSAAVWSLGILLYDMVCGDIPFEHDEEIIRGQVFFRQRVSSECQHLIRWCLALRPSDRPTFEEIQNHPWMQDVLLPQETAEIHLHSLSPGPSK

[15] = target: SNF-related serine/threonine-protein kinase (Homo sapiens) (UniProt Q9NRH2); details: Compound concentration 1000.0 nM
[16] = target: BMP-2-inducible protein kinase (Homo sapiens) (UniProt Q9NSY1); details: Compound concentration 1000.0 nM
[17] = target: Sigma non-opioid intracellular receptor 1 (Homo sapiens, UniProt Q99720); details: Compound concentration 10.0 uM
[18] = target: Cyclin-dependent kinase 3 (Homo sapiens) (UniProt Q00526); details: Compound concentration 1000.0 nM
Cyclin-dependent kinase 3 (Homo sapiens), sequence (Q00526 whole entry, looked up): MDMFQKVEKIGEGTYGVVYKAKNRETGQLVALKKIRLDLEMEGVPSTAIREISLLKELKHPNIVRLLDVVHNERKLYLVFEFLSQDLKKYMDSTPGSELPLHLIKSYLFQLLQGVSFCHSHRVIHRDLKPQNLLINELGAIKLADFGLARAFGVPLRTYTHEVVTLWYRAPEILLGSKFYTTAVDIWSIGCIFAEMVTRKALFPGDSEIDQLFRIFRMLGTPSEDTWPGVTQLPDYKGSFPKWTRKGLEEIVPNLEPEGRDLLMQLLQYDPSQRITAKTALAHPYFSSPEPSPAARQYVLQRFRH

[19] = target: Dual specificity testis-specific protein kinase 1 (Homo sapiens) (UniProt Q15569); details: Compound concentration 1000.0 nM
[20] = target: Activin receptor type-2B (Homo sapiens) (UniProt Q13705); details: Compound concentration 1000.0 nM
Activin receptor type-2B (Homo sapiens), sequence (Q13705 whole entry): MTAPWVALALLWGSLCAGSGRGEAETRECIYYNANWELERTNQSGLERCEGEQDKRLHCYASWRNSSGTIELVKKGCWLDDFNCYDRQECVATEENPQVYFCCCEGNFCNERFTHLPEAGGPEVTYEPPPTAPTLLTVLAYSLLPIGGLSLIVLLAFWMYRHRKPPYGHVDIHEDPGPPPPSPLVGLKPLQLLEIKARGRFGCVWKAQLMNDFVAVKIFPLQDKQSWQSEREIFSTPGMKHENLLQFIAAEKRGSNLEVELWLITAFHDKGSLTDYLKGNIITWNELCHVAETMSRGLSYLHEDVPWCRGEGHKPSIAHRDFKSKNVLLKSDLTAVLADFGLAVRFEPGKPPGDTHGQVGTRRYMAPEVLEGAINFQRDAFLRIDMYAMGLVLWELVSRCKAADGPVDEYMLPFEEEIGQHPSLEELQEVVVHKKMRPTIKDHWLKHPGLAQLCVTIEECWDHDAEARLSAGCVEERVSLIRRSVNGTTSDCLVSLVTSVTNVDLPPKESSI

[21] = target: Serine/threonine-protein kinase D3 (Homo sapiens) (UniProt O94806); details: Compound concentration 1000.0 nM
[22] = target: Serine/threonine-protein kinase BRSK2 (Homo sapiens) (UniProt Q8IWQ3); details: Compound concentration 1000.0 nM
[23] = target: Mitogen-activated protein kinase 14 (Homo sapiens) (UniProt Q16539); details: Compound concentration 1000.0 nM
[24] = target: Cyclin-dependent kinase-like 3 (Homo sapiens) (UniProt Q8IVW4); details: Compound concentration 1000.0 nM
Cyclin-dependent kinase-like 3 (Homo sapiens), sequence (Q8IVW4 whole entry, looked up): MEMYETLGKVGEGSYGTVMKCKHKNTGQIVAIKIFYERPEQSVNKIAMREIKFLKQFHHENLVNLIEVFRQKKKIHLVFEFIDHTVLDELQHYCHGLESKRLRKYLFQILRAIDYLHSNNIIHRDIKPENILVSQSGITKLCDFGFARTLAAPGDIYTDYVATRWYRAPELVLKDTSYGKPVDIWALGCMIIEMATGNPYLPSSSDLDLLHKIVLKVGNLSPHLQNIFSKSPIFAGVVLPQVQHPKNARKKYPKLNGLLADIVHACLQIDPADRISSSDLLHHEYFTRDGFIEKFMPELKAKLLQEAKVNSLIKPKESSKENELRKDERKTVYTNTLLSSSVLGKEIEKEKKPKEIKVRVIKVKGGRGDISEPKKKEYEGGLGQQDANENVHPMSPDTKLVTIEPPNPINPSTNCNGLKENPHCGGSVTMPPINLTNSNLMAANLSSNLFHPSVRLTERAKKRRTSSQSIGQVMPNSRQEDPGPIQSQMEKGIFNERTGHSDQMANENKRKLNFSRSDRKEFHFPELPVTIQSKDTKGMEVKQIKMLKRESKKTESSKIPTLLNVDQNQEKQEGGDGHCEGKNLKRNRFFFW

[25] = target: Aurora kinase A (Homo sapiens) (UniProt O14965); details: Compound concentration 1000.0 nM
[26] = target: Homeodomain-interacting protein kinase 3 (Homo sapiens) (UniProt Q9H422); details: Compound concentration 1000.0 nM
[27] = target: Cyclin-dependent kinase 4 (Homo sapiens) (UniProt P11802); details: Compound concentration 1000.0 nM
[28] = test system: Epidermal growth factor receptor (Homo sapiens), P00533 [G719C]; details: Compound concentration 1000.0 nM
[29] = test system: Hepatocyte growth factor receptor (Homo sapiens), P08581 [M1250T]; details: Compound concentration 1000.0 nM
[30] = target: Tyrosine-protein kinase ABL1 (Homo sapiens) (UniProt P00519); details: Compound concentration 1000.0 nM
[31] = target: Dual specificity mitogen-activated protein kinase kinase 4 (Homo sapiens) (UniProt P45985); details: Compound concentration 1000.0 nM
Dual specificity mitogen-activated protein kinase kinase 4 (Homo sapiens), sequence (P45985 whole entry): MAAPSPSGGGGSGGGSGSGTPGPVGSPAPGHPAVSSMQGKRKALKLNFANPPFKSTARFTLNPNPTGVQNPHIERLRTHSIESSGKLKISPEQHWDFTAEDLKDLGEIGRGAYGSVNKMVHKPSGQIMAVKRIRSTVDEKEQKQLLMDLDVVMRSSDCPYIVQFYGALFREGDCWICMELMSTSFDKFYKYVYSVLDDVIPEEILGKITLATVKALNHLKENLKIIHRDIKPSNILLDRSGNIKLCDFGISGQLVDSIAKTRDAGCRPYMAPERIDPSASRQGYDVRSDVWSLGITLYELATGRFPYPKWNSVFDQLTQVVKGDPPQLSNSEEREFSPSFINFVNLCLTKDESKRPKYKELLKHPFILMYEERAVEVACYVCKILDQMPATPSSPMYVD

[32] = target: Mitogen-activated protein kinase 3 (Homo sapiens) (UniProt P27361); details: Compound concentration 1000.0 nM
[33] = target: Leukocyte tyrosine kinase receptor (Homo sapiens) (UniProt P29376); details: Compound concentration 1000.0 nM
[34] = target: Phosphorylase b kinase gamma catalytic chain, skeletal muscle/heart isoform (Homo sapiens) (UniProt Q16816); details: Compound concentration 1000.0 nM
[35] = target: Muscarinic acetylcholine receptor M3 (Homo sapiens) (UniProt P20309); details: Compound concentration 10.0 uM
[36] = target: Mitogen-activated protein kinase kinase kinase 7 (Homo sapiens) (UniProt O43318); details: Compound concentration 1000.0 nM
[37] = target: Myosin light chain kinase (Homo sapiens) (UniProt Q32MK0); details: Compound concentration 1000.0 nM
[38] = test system: Serine/threonine-protein kinase B-raf (Homo sapiens), P15056 [V600E]; details: Compound concentration 1000.0 nM
[39] = target: Insulin receptor-related protein (Homo sapiens) (UniProt P14616); details: Compound concentration 1000.0 nM
[40] = target: Interferon-induced, double-stranded RNA-activated protein kinase (Homo sapiens) (UniProt P19525); details: Compound concentration 1000.0 nM
[41] = target: Phosphatidylinositol 4,5-bisphosphate 3-kinase catalytic subunit beta isoform (Homo sapiens) (UniProt P42338); details: Compound concentration 1000.0 nM
Phosphatidylinositol 4,5-bisphosphate 3-kinase catalytic subunit beta isoform (Homo sapiens), sequence (P42338 whole entry, looked up, canonical isoform): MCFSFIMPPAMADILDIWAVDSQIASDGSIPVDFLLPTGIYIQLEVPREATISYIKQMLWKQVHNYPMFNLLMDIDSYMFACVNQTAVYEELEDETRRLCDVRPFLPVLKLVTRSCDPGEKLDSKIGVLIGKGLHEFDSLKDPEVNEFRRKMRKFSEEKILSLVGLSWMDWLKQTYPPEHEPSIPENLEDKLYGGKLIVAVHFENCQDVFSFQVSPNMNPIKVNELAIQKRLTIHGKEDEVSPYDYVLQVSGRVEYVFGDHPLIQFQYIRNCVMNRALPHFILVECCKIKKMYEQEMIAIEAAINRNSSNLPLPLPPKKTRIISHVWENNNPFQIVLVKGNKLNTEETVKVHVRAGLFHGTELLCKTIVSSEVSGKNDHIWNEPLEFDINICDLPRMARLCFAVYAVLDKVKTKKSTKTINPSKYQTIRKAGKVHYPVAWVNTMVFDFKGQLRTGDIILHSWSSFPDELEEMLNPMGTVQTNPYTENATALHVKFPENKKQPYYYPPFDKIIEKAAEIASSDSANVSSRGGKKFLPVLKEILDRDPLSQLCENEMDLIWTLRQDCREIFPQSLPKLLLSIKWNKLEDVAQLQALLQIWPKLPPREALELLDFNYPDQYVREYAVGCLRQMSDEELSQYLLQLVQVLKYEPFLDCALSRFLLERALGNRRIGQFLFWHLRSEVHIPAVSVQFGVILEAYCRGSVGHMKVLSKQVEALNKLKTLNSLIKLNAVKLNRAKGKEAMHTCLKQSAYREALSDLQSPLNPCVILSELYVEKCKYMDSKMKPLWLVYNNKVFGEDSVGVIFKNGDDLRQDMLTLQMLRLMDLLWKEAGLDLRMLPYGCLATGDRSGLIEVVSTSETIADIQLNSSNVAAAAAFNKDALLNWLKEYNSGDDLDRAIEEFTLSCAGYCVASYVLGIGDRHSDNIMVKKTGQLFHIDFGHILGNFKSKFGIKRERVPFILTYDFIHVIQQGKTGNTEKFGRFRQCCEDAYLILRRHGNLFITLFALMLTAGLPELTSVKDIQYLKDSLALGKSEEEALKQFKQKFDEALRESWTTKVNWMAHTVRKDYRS

[42] = target: Serine/threonine-protein kinase 10 (Homo sapiens) (UniProt O94804); details: Compound concentration 1000.0 nM
[43] = target: Serine/threonine-protein kinase 16 (Homo sapiens) (UniProt O75716); details: Compound concentration 1000.0 nM
Serine/threonine-protein kinase 16 (Homo sapiens), sequence (O75716 whole entry): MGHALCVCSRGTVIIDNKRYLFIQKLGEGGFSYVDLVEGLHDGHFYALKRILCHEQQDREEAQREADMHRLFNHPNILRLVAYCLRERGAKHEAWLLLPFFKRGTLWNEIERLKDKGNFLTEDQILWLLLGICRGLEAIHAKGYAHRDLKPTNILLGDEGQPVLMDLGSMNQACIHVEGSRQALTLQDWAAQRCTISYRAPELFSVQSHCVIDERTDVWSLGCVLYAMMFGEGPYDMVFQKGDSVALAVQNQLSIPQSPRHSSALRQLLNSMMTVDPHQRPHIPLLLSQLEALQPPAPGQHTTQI

[44] = target: Cyclin-dependent kinase 7 (Homo sapiens) (UniProt P50613); details: Compound concentration 1000.0 nM
Cyclin-dependent kinase 7 (Homo sapiens), sequence (P50613 whole entry): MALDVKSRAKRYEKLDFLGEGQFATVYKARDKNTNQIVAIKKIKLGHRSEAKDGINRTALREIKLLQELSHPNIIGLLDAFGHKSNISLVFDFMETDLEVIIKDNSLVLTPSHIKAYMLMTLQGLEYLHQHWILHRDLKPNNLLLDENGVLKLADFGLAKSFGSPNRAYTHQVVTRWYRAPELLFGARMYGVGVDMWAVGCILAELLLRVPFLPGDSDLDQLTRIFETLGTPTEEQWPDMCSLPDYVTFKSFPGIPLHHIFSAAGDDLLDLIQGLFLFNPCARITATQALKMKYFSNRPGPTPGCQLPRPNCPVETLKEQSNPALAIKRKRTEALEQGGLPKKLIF

[45] = target: Tyrosine-protein kinase ABL2 (Homo sapiens) (UniProt P42684); details: Compound concentration 1000.0 nM
Tyrosine-protein kinase ABL2 (Homo sapiens), sequence (P42684 whole entry, the tested form may be a part): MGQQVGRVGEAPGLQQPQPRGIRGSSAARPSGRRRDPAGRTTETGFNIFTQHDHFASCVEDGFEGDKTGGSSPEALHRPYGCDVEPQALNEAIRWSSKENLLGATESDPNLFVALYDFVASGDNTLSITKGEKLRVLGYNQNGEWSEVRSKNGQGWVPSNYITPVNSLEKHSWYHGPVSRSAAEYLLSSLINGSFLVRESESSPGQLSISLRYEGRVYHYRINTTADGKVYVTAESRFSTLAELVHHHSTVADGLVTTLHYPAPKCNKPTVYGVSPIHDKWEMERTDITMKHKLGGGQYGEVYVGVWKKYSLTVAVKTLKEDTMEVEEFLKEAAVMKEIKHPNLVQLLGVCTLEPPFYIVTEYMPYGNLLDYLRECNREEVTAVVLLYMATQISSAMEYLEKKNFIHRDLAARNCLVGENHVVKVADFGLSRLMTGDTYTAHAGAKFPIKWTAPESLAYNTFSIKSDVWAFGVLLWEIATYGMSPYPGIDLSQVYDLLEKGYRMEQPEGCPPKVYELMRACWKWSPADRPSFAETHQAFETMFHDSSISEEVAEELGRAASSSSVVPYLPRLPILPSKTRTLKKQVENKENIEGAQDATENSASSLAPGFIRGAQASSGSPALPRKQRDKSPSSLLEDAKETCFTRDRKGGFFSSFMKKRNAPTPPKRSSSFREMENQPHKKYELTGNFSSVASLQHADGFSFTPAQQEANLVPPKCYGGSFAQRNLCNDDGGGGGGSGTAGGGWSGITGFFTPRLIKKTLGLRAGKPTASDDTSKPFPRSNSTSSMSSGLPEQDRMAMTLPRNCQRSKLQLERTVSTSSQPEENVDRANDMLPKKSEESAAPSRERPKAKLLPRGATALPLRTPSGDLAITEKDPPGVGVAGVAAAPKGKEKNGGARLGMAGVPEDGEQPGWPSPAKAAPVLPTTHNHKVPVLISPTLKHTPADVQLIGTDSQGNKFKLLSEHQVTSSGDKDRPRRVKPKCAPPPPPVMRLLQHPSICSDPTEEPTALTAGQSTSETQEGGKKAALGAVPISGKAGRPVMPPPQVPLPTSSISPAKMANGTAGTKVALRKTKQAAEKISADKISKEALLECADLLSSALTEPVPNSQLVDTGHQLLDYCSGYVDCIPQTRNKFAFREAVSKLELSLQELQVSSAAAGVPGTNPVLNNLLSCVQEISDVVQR

[46] = target: LIM domain kinase 1 (Homo sapiens) (UniProt P53667); details: Compound concentration 1000.0 nM

Q: What does the source list for `CCCCN(CCCC)C(=O)CN1C[C@@H](c2cc(OC)c3c(c2)OCO3)[C@H](C(=O)O)[C@H]1CC(C)(C)CCC` [A-545]?
A: residual activity [1]: 100%; residual activity [2]: 100%; residual activity [3]: 95.9%; residual activity [4]: 100%; residual activity [5]: 100%; residual activity [6]: 100%; residual activity [7]: 100%; residual activity [8]: 84.8%; residual activity [9]: 93.9%; residual activity [10]: 98.3%; residual activity [11]: 100%; residual activity [12]: 99.9%; residual activity [13]: 84.2%; residual activity [14]: 91.7%; residual activity [15]: 98.4%; residual activity [16]: 100%; inhibition [17]: 93.6%; residual activity [18]: 88.1%; residual activity [19]: 94.3%; residual activity [20]: 85.1%; residual activity [21]: 100%; residual activity [22]: 98.3%; residual activity [23]: 81.3%; residual activity [24]: 83.6%; residual activity [25]: 90.2%; residual activity [26]: 100%; residual activity [27]: 100%; residual activity [28]: 100%; residual activity [29]: 100%; residual activity [30]: 94.8%; residual activity [31]: 93.3%; residual activity [32]: 100%; residual activity [33]: 94.1%; residual activity [34]: 97.5%; inhibition [35]: 10.3%; residual activity [36]: 84.7%; residual activity [37]: 100%; residual activity [38]: 100%; residual activity [39]: 93.2%; residual activity [40]: 100%; residual activity [41]: 100%; residual activity [42]: 82.4%; residual activity [43]: 100%; residual activity [44]: 89.5%; residual activity [45]: 100%; residual activity [46]: 99%

Q: How did the residual activity [1] turn out when `CCCCN(CCCC)C(=O)CN1C[C@H](c2cc(OC)c3c(c2)OCO3)[C@@H](C(=O)O)[C@@H]1CC(C)(C)CCC` [ABT-546] was run?
A: Its residual activity is 100%.

Q: What about the residual activity [2] of the same compound?
A: Its residual activity is 100%.

Q: And the residual activity [3]?
A: The residual activity was 89.7%.

Q: What about the residual activity [4] of the same compound?
A: Its residual activity is 62.8%.

Q: And the residual activity [5]?
A: The residual activity was 100%.

Q: What about the residual activity [6] of the same compound?
A: The residual activity was 98.6%.

Q: What about the residual activity [7] of the same compound?
A: The residual activity was 100%.

Q: What about the residual activity [8] of the same compound?
A: Its residual activity is 95.4%.

Q: What about the residual activity [9] of the same compound?
A: Its residual activity is 100%.

Q: And the residual activity [10]?
A: The residual activity was 62%.

Q: What about the residual activity [11] of the same compound?
A: The residual activity was 100%.

Q: And the residual activity [12]?
A: Its residual activity is 100%.

Q: And the residual activity [13]?
A: The residual activity was 100%.

Q: And the residual activity [14]?
A: The residual activity was 100%.

Q: And the residual activity [15]?
A: The residual activity was 100%.

Q: And the residual activity [16]?
A: Its residual activity is 100%.

Q: And the inhibition [17]?
A: The inhibition was 29.6%.

Q: And the residual activity [18]?
A: Its residual activity is 100%.

Q: What about the residual activity [19] of the same compound?
A: The residual activity was 100%.

Q: What about the residual activity [20] of the same compound?
A: Its residual activity is 100%.

Q: And the residual activity [21]?
A: Its residual activity is 90.2%.

Q: What about the residual activity [22] of the same compound?
A: Its residual activity is 95.6%.

Q: And the residual activity [23]?
A: Its residual activity is 100%.

Q: And the residual activity [24]?
A: The residual activity was 100%.

Q: And the residual activity [25]?
A: The residual activity was 90.3%.

Q: What about the residual activity [26] of the same compound?
A: Its residual activity is 100%.

Q: What about the residual activity [27] of the same compound?
A: Its residual activity is 70.3%.

Q: And the residual activity [28]?
A: Its residual activity is 95.4%.

Q: What about the residual activity [29] of the same compound?
A: Its residual activity is 100%.

Q: And the residual activity [30]?
A: Its residual activity is 96.5%.

Q: And the residual activity [31]?
A: The residual activity was 74.4%.

Q: What about the residual activity [32] of the same compound?
A: The residual activity was 100%.

Q: What about the residual activity [33] of the same compound?
A: The residual activity was 100%.

Q: What about the residual activity [34] of the same compound?
A: The residual activity was 100%.

Q: What about the inhibition [35] of the same compound?
A: Its inhibition is -9.94%.

Q: What about the residual activity [36] of the same compound?
A: Its residual activity is 85.5%.

Q: What about the residual activity [37] of the same compound?
A: Its residual activity is 100%.

Q: And the residual activity [38]?
A: The residual activity was 89.1%.

Q: What about the residual activity [39] of the same compound?
A: Its residual activity is 100%.

Q: And the residual activity [40]?
A: Its residual activity is 100%.

Q: What about the residual activity [41] of the same compound?
A: Its residual activity is 56.9%.

Q: What about the residual activity [42] of the same compound?
A: Its residual activity is 100%.

Q: What about the residual activity [43] of the same compound?
A: The residual activity was 100%.

Q: And the residual activity [44]?
A: The residual activity was 100%.

Q: What about the residual activity [45] of the same compound?
A: Its residual activity is 100%.

Q: And the residual activity [46]?
A: The residual activity was 100%.
